Read-outs that look alike come from different tables or passages of the source.
Key:
Format in all cases: cell-based, human
caspase-12 = assay: Caspase-12 activity assay (fluorogenic substrate, immunofluorescence); conditions: MCF-7 cells, day 3 or 6, FIG. 12B, 13C,D
Procedure: (§1) Calpain and caspase-12 activities were measured with the cell-permeable fluorogenic peptide substrates t-Boc-Leu-Met-CMAC (50 μM; CMAC, 7-amino-4-chloromethyl coumarin; Molecular Probes) and Ala-Thr-Ala-Asp-AFC (50 μM; AFC, 7-amino-4-trifluoromethyl coumarin; Caspase-12 Fluorometric Assay Kit, BioVision), respectively. See, e.g., Roser and Gores (2000) Meth. Mol. Biol. 144:2452-2466. Polyclonal antibodies directed against caspase-12 (BioVision) and monoclonal antibodies directed against the calpain small (cleaved) subunit (Chemicon) were used to evaluate activation of these proteases. For immunofluorescence labeling, the fixed and permeabilized cell preparations were pre-incubated with non-specific serum for 20 min, incubated for 1 h at 37° C. or overnight at 4° C. with the primary antibodies and 1 h at room temperature with secondary antibodies using ALEXA FLUOR-488 signal-amplification mouse antibodies (Molecular Probes) and FITC- or Texas Red-conjugated anti-rabbit and anti-mouse IgG (Molecular Probes). Fluorescence microscopy was carried out as described above for Ca^2+ imaging. Image analysis and measurement of fluorescence intensity was performed using MetaMorph 6.3 software (Molecular Devices/Universal Imaging), as described previously in Sergeev (1996) Endocrine 5: 335-340.

HT-29 cells = assay: Apoptotic ratio by propidium iodide flow cytometry (AC50); conditions: read-out: Apoptosis-inducing AC50
Procedure: The human cancer cells (2×10^5) were cultured in 60-mm Petri dishes and incubated for 24 h. After treated with test compounds for 24 h, the cells were then harvested, washed with PBS resuspended in 200 μL of PBS, and fixed in 800 μL of iced 100% ethanol at −20° C. After being left to stand overnight, the cell pellets were collected by centrifugation, resuspended in 1 mL of hypotonic buffer (0.5% Triton X-100 in PBS and 0.5 μg/mL RNase) and incubated at 37° C. for 30 min. Next, 1 mL of propidium iodide solution (50 μg/mL) was added, and the mixture was allowed to stand on ice for 30 min. Fluorescence emitted from the propidium iodide-DNA complex was quantitated after excitation of the fluorescent dye by FACScan cytometry (Becton Dickinson, San Jose, Calif.).
The PMF compounds were assayed in vitro for cell growth inhibition and for their ability to induce apoptosis in various human cancer cells, including HL-60, AGS, COLO 205, and HT-29 cells, using methods described in Section 8.4 above. Antiproliferative (IC50) and apoptosis-inducing activity (AC50) of PMFs in the HL-60, AGS, COLO 205, and HT-29 cells are reported in Table 9, where *P<0.05, **P<0.01 and ***P<0.001 indicate statistically significant differences from the control group.

[1] = tested on: MCF-7 breast cancer cells; assay: Cell death by propidium iodide uptake; conditions: MCF-7 cells; for Cell death (propidium iodide), in words: evident at day 6, FIG. 9
Procedure: (§2) MCF-7 cells were maintained and assayed as described in Section 8.4 above. Apoptosis was evaluated by the plasma membrane and nuclear changes as previously described in Sergeev (2004) J. Steroid Biochem. Mol. Biol. 89-90:419-425. Briefly, An Annexin V assay (ALEXA FLUOR 488 Annexin V Assay Kit; Molecular Probes) was used for detection of the apoptotic plasma membrane (loss of membrane asymmetry due to phosphatidylserine translocation). Fluorescence (485 nm excitation, 530 nm emission) of the Annexin V-abeled cells grown in 96-well plates was measured in the FLx800 plate reader with KC software (BioTek) and expressed in fluorescence units per 1×10^3 cells. Propidium iodide uptake was used to evaluate non-apoptotic and apoptotic cell death (the dye permeates plasma membrane and stain nucleic acids of both necrotic and the late apoptotic cells). Fluorescence (530 nm excitation, 620 nm emission) of the propidium iodide-labeled cells was also measured in the FLx800 reader. Additionally, HOECHST 33342 and ALEXA FLUOR 488 Annexin V were employed to visualize apoptotic nuclei (nuclear fragmentation) and the apoptotic plasma membrane, respectively. Fluorescence microscopy of HOECHST 33342- and Annexin V-labeled cells was performed as described below for the cellular Ca^2+ and immunofluorescence imaging.

[2] = tested on: MCF-7 breast cancer cells; assay: Apoptosis assay (Annexin V, Hoechst 33342); conditions: MCF-7 cells; for Apoptosis by morphological criteria (nuclear fragmentation): Hoechst 33342
Procedure: as §2

calpain = assay: Calpain activity assay (fluorogenic substrate, immunofluorescence); conditions: MCF-7 cells; for Calpain activation, in words: day 3 or 6, FIG. 12A, 13A,B
Procedure: as §1

[3] = tested on: intracellular Ca^2+ stores in MCF-7 cells; assay: Ca2+ mobilization from endoplasmic reticulum stores with thapsigargin (fura-2); conditions: for Filling of the endoplasmic reticulum Ca^2+ stores, in words: 25 μM; for Decrease of the Ca^2+ mobilization response: compound 4: 6.25 μM, compound 5: 12.5 μM
Procedure: To evaluate Ca^2+ influx from the extracellular space, the Mn^2+ entry rate, as a reporter of Ca^2+ influx, was measured. The images were recorded at excitation of 360 nm (the fura-2 isosbestic point) and 2 mM of extracellular Mn^2+. The rates of Ca^2+ entry were estimated from the slope of the liner portion of curves of the fura-2 fluorescence quench by Mn^2+. To evaluate Ca^2+ release from the intracellular stores, cells grown on coverslips were placed in D-PBS, and the mobilizer of the endoplasmic reticulum Ca^2+-stores, thapsigargin (1 μM), was added after recording the basal [Ca^2+]i. The peak values of the [Ca^2+]i increase, indicating the filling level of the Ca^2+-stores, were measured with fura-2.
To investigate mechanism of a sustained increase in [Ca^2+]i after treatment with PMFs, the rates of the background Ca^2+ influx from the extracellular space and the magnitudes of Ca^2+ release from the endoplasmic reticulum stores with thapsigargin were measured in the treated cells using methods described above.
In FIG. 11A through 11D, the concentration for each PMF was as follows: compound 4: 6.25 μM; compound 5: 12.5 μM; compound 6: 25 μM; and compound 7: 25 μM. […] The Ca^2+ entry rates (C, D) are presented as tangents of the linear portions of the fura-2 quench curves. Data in panel C are presented as means±SE for control cells or cells treated with PMFs 3 days (black bars) or 6 days (gray bars). […] Mn^2+ or thapsigargin was added after recording the basal level of fluorescence or basal [Ca^2+]i for 30-60 s.

[4] = day 3 and 6 of treatment, dose-dependent

Row | Compound | Caspase-12 activation, in words (caspase-12) | Induction of cell death (ECmin, apparent minimal effective concentration) [1] [µM] | Cell death (propidium iodide), in words [1] | Induction of cell apoptosis (ECmin, apparent minimal effective concentration) [2] [µM] | Calpain activation, in words (calpain) | AC50 (HT-29 cells; Homo sapiens) [µM] | also measured
1 | COc1ccc(-c2oc3c(OC)c(OC)c(OC)c(OC)c3c(=O)c2OC)cc1OC [D, 3,5,6,7,8,3,4-heptamethoxyflavone, reference compound] | No significant calpain and caspase-12 activation | >50 | not effective in inducing non-apoptotic cell death | >50 | No significant calpain and caspase-12 activation |  | AC50 (HT-29 cells): > 100 µM; Proapoptotic activity (Annexin V), in words ([2]; 25-100 μM, day 6 of treatment): low proapototic activity; Apoptosis by morphological criteria (nuclear fragmentation) [2]: confirmed apoptosis; Number of cells with activated calpain, in words (calpain; day 3 of treatment): a trend in increasing the number of cells with activated calpain; Filling of the endoplasmic reticulum Ca^2+ stores, in words [3]: did not affect the filling of the endoplasmic reticulum Ca^2+ stores
2 | COc1ccc(-c2oc3c(OC)c(OC)c(OC)c(O)c3c(=O)c2OC)cc1OC [Compound C, 5-hydroxy-3,6,7,8,3′,4′-hexamethoxyflavone] | activation | 3.125 | induced death of MCF-7 breast cancer cells | 1.56 | activation | > 100 | Apoptosis by morphological criteria (nuclear fragmentation) [2]: confirmed apoptosis; Induction of apoptosis (Annexin V), in words [2, 4]: induced apoptosis; Decrease of the Ca^2+ mobilization response [3]: 1.5 fold
3 | COc1ccc(-c2cc(=O)c3c(O)c(OC)c(OC)c(OC)c3o2)cc1OC [J, 5-hydroxy-6,7,8,3′,4′-pentamethoxyflavone] |  |  |  |  |  | > 100 | 
4 | COc1ccc(-c2cc(=O)c3c(OC)c(OC)c(OC)cc3o2)cc1OC [Compound 7, 5,6,7,3′,4′-pentamethoxyflavone, reference compound] | No significant calpain and caspase-12 activation | >50 | not effective in inducing non-apoptotic cell death | >50 | No significant calpain and caspase-12 activation |  | Induction of apoptosis (Annexin V), in words ([2]; 50-100 μM, day 6 of treatment): only a trend in inducing apoptosis; Filling of the endoplasmic reticulum Ca^2+ stores, in words [3]: did not affect the filling of the endoplasmic reticulum Ca^2+ stores
5 | COc1ccc(-c2cc(=O)c3c(OC)c(OC)c(OC)c(OC)c3o2)cc1O [I, 3′-hydroxy-5,6,7,8,4′-pentamethoxyflavone] |  |  |  |  |  | > 100 | 
6 | COc1c(OC)c(OC)c2c(=O)cc(-c3ccc(O)c(O)c3)oc2c1OC [H, 3′,4′-dihydroxy-5,6,7,8-tetramethoxyflavone] |  |  |  |  |  | > 100 | 
7 | COc1ccc(-c2cc(=O)c3c(O)c(OC)c(OC)c(OC)c3o2)cc1O [Compound K, 5,3′-dihydroxy-6,7,8,4′-tetramethoxyflavone] |  |  |  |  |  | > 100 | 
8 | COc1cc(-c2cc(=O)c3c(OC)c(OC)c(OC)c(OC)c3o2)ccc1O [Compound G, 4′-hydroxy-5,6,7,8,3′-pentamethoxyflavone] |  |  |  |  |  | > 100 | 
9 | COc1cc(-c2cc(=O)c3c(OC)c(OC)c(OC)c(OC)c3o2)cc(OC)c1OC [F, 5,6,7,8,3′,4′,5′-heptamethoxyflavone, reference compound] |  |  |  |  |  | > 100 | 
10 | COc1ccc(-c2cc(=O)c3c(OC)c(OC)c(OC)cc3o2)cc1O [Compound 5, 3′-hydroxy-5,6,7,4′-tetramethoxyflavone] | activation | 6.25 | induced death of MCF-7 breast cancer cells | 3.125 | activation |  | Apoptosis by morphological criteria (nuclear fragmentation) [2]: confirmed apoptosis; Induction of apoptosis (Annexin V), in words [2, 4]: induced apoptosis; Decrease of the Ca^2+ mobilization response [3]: 1.35 fold
11 | COc1ccc(-c2oc3c(OC)c(OC)c(OC)c(OC)c3c(=O)c2O)cc1OC [B, 3-hydroxy-5,6,7,8,3′,4-hexamethoxyflavone] |  |  |  |  |  |  | AC50 (HT-29 cells): > 100 µM
12 | COc1ccc(-c2cc(=O)c3c(OC)c(OC)c(OC)c(OC)c3o2)cc1OC [Compound A, 5,6,7,8,3′,4′-hexamethoxyflavone, reference compound] |  |  |  |  |  | > 100 | 
13 | COc1cc(-c2cc(=O)c3c(O)c(OC)c(OC)c(OC)c3o2)cc(OC)c1OC [E, 5-hydroxy-6,7,8,3′,4′,5′-hexamethoxyflavone] |  |  |  |  |  | > 100 | 

From US20140039044A1, “Hydroxylated Polymethoxyflavone Compositions” (WLLGEN, INC., priority 2006, published 2014)
